Measured values published in ChEMBL document CHEMBL1127285, “N-alkyl quinuclidinium substance P antagonists” (Bioorg Med Chem Lett, 1994).

Molecular target: Substance-P receptor (Homo sapiens, UniProt P25103)
Assay: Compound was tested in vitro for its Tachykinin receptor 1 affinity by the displacement of [125I]Bolton-Hunter substance p from human IM-9 cells
Assay type: cell-based

Chain of Substance-P receptor (P25103 whole entry): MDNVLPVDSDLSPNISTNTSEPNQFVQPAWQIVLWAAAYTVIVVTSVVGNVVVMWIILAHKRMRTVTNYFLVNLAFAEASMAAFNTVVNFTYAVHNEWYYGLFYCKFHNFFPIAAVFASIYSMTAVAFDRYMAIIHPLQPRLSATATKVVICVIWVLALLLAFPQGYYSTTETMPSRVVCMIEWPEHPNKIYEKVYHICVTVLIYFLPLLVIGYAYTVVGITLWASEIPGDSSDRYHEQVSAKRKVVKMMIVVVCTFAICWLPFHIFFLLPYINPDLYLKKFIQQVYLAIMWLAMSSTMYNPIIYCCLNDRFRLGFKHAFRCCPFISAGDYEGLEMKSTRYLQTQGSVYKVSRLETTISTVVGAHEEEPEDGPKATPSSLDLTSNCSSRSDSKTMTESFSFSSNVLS

| Structure (SMILES) | IC50 [nM] |
| --- | --- |
| COc1ccccc1CN[C@H]1C2CC[N+](Cc3ccccc3)(CC2)[C@H]1C(c1ccccc1)c1ccccc1 | 332 |
| COc1ccccc1CN[C@H]1C2CC[N+](C)(CC2)[C@H]1C(c1ccccc1)c1ccccc1 | 12.2 |
| CCOC(=O)C[N+]12CCC(CC1)[C@H](NCc1ccccc1OC)[C@@H]2C(c1ccccc1)c1ccccc1 | 32.7 |
| C=CC[N+]12CCC(CC1)[C@H](NCc1ccccc1OC)[C@@H]2C(c1ccccc1)c1ccccc1 | 22.3 |
| COc1ccccc1CN[C@H]1C2CC[N+](CC(N)=O)(CC2)[C@H]1C(c1ccccc1)c1ccccc1 | 1.3 |
